Assay results reported in EP0344708A2, “Composition for external application to skin” (LION CORPORATION, priority 1988, dated 1989).

Experiments:
[1] = tested on: defective wound; assay: Circular defective wound in rats (weight of regenerated granulation); type: in vivo, Wistar male rats; settings: relative to control (10% ethanol aqueous solution) = 100; Concn. 0.1 % in 10% ethanol aqueous solution, applied to wound twice a day, 1 ml per application, 5 days; granulation weight 6 days after wounding; 6 rats per group
Protocol: Groups of Wistar male rats (SPF; each group comprising 6 animals) were anesthetized and hair was removed from the back of each rat. Then a circular defective wound having a diameter of 12 mm was formed on the skin of the back from which hair had been removed.
After forming the defective wound, an effective component was dissolved in 10% ethanol aqueous solution and applied to the wounded portion twice a day in a dose of 1 mℓ per application for 5 days successively. 6 Days after the formation of the wound, the animals were sacrificed to cut off the formed granulation from the defective portion and the weight of the granulation was determined. The relative value of the average of the measured weight with respect to that of the control was defined as an indication of the rate of healing of the defective wound. The results obtained are listed in Table IV given below (the results are expressed in the value relative to that of the control which is defined as 100).

[2] = tested on: incised wound; assay: Incised wound healing in rats (tension needed to peel skin at the wound, tensile strength tester); type: in vivo, Wistar male rats; settings: relative to control (physiological saline) = 100; Concn. 0.5 % in saline, subcutaneously once a day for 7 days, 0.67 ml/kg/day; tension measured 8 days after operation; 8 rats per group
Source text: Groups of Wistar male rats (SPF; each group comprising 8 animals) were anesthetized with Nembutal® pentobarbital sodium) injection and hair was removed from the back of each rat over a wide area. After disinfecting the area with alcohol, a sharp incised wound having a length of 4 cm was mesially formed with a scalpel and it was stitched up, with Mitchell needles, at three positions at regular intervals (the Mitchell needles were removed 4 days after the operation).
After forming incised wound, an effective component was dissolved in a saline solution and administered subcutaneously once a day for 7 days successively (dose: 0.67 m ℓ/kg/day). The animals were sacrificed 8 days after the operation, the skin of the wounded part was peeled off to remove subcutis followed by preparing three pieces of the skin perpendicular to the line of the incised wound, having a width of 1 cm, per rat and determining tention (g/cm) required for peeling off each piece of the skin at the incised wound portion utilizing a tensile strength tester. The relative value of the average of the measured tension with respect to that of the control was defined as an indication of the rate of healing of the wound. The results obtained are listed in Table III given below (the results are expressed in the value relative to that of the control which is defined as 100).

[3] = Stability of the compound in the used composition after the use test, HPLC; type: physicochemical; settings: on the average, 131400 min

rate of Compound I-A ·2Ca remaining in the milky lotion ([3]; in the used milky lotion (0.05 %) after completion of the 3-month test) [%]	rate of Compound I-A ·6Na remaining in the beauty essence ([3]; in the used beauty essence (0.1 %) after completion of the 3-month test) [%]	rate of the remaining Compound I-A ([3]; in the used toilet water (0.1 %) after completion of the 3-month test) [%]	Structure (SMILES)	Rate of Regenerated Granulation [1]	Rate of Relative Healing [2]
			CC(C)(COP(=O)(O)OP(=O)(O)OC[C@H]1O[C@@H](n2cnc3c(N)ncnc32)[C@H](O)[C@@H]1OP(=O)(O)O)[C@@H](O)C(=O)NCCC(=O)NCCS [Coenzyme A ·3Na, reference compound]	119	117
98.8			CC(C)(COP(=O)(O)OP(=O)(O)OC[C@H]1O[C@@H](n2cnc3c(N)ncnc32)[C@H](O)[C@@H]1OP(=O)(O)O)[C@@H](O)C(=O)NCCC(=O)NCCSSCCNC(=O)CCNC(=O)[C@H](O)C(C)(C)COP(=O)(O)OP(=O)(O)OC[C@H]1O[C@@H](n2cnc3c(N)ncnc32)[C@H](O)[C@@H]1OP(=O)(O)O [Compound I-A ·2Ca]		
	98.5		CC(C)(COP(=O)(O)OP(=O)(O)OC[C@H]1O[C@@H](n2cnc3c(N)ncnc32)[C@H](O)[C@@H]1OP(=O)(O)O)[C@@H](O)C(=O)NCCC(=O)NCCSSCCNC(=O)CCNC(=O)[C@H](O)C(C)(C)COP(=O)(O)OP(=O)(O)OC[C@H]1O[C@@H](n2cnc3c(N)ncnc32)[C@H](O)[C@@H]1OP(=O)(O)O [Compound I-A ·6Na]	148	126
		97.8	CC(C)(COP(=O)(O)OP(=O)(O)OC[C@H]1O[C@@H](n2cnc3c(N)ncnc32)[C@H](O)[C@@H]1OP(=O)(O)O)[C@@H](O)C(=O)NCCC(=O)NCCSSCCNC(=O)CCNC(=O)[C@H](O)C(C)(C)COP(=O)(O)OP(=O)(O)OC[C@H]1O[C@@H](n2cnc3c(N)ncnc32)[C@H](O)[C@@H]1OP(=O)(O)O [Compound I-A]		
